In ChEMBL document CHEMBL1135637, “Quantitative structure--activity relations for gammadelta T cell activation by phosphoantigens” (J Med Chem, 2002):

test: Effective concentration to activate gammadelta T cells; type: functional, cell-based; conditions: t-cell

SMILES | EC50
CC(=O)CCCOP(=O)(O)OP(=O)(O)O | 31.6 µM
O=C(O)COP(=O)(O)O [PHOSPHOGLYCOLIC ACID] | 707 µM
CCCOP(=O)(O)O [PROPYL PHOSPHATE] | 707 µM
CCC(=O)COP(=O)(O)OP(=O)(O)O | 44.7 µM
CC(=O)CCOP(=O)(O)OP(=O)(O)O | 40 µM
O=C(O)C(COP(=O)(O)O)OP(=O)(O)O (stereo not given) | 1580 µM
C=CCOP(=O)(O)O | 158 µM
O=P(O)(O)O[C@@H]1OC[C@@H](O)[C@H](O)[C@H]1O | 1580 µM
CCC(=O)CCOP(=O)(O)OP(=O)(O)O | 31.6 µM
C/C=C\COP(=O)(O)O | 158 µM
CC(O)(CI)CCOP(=O)(O)OP(=O)(O)OP(=O)(O)OCCC(C)(O)CI (stereo not given) | 8.66 µM
CC(=O)C(C)COP(=O)(O)OP(=O)(O)O (stereo not given) | 31.6 µM
CC(O)(CBr)CCOP(=O)(O)OP(=O)(O)OP(=O)(O)OCC(C)(O)CBr (stereo not given) | 14.1 µM
CCOP(=O)(OCC)OP(=O)(OCC)OCC [ETHYL PYROPHOSPHATE] | 3.16 µM
O=P(O)(O)OCCO | 224 µM
NCCCC(O)(P(=O)(O)O)P(=O)(O)O [ALENDRONIC ACID] | 0.9 µM
CCC(C)OP(=O)(O)O (stereo not given) | 2240 µM
CC(C)=CCOP(=O)(O)O | 158 µM
CC(C)OP(=O)(O)O [PHOSPHORYLISOPROPANE] | 707 µM
CC(OP(=O)(O)O)C(=O)O (stereo not given) | 1580 µM
COP(=O)(O)O [PHOSPHORIC ACID MONOMETHYL ESTER] | 707 µM
C=C(C)CCOP(=O)(O)O [ISOPENTENYL PHOSPHATE] | 158 µM
O=P(O)(O)OCC(O)CO (stereo not given) | 1580 µM

Continued, values first:

EC50 | SMILES
0.4 µM | C[C@@]1(CCOP(=O)(O)OP(=O)(O)O)CO1
3.16 µM | C=CCOP(=O)(O)OP(=O)(O)O [ALLYL PYROPHOSPHATE]
0.0012 µM | CC(O)(CI)CCOP(=O)(O)OP(=O)(O)O (stereo not given) [IODOHYDRIN PYROPHOSPHATE]
3.16 µM | C/C=C\COP(=O)(O)OP(=O)(O)O [CROTYL PYROPHOSPHATE]
0.01 µM | CC(O)(CBr)CCOP(=O)(O)OP(=O)(O)O (stereo not given) [BROMOHYDRIN PYROPHOSPHATE]
1 µM | CCCCCN(C)CCC(O)(P(=O)(O)O)P(=O)(O)O [IBANDRONIC ACID]
3.16 µM | CC(O)(CO)CCOP(=O)(O)OP(=O)(O)O (stereo not given)
7.07 µM | CC(COP(=O)(O)OP(=O)(O)O)C(C)(O)CI (stereo not given)
0.0707 µM | CC(O)(CCl)CCOP(=O)(O)OP(=O)(O)O (stereo not given) [CHLOROHYDRIN PYROPHOSPHATE]
5.66 µM | NCCC(O)(P(=O)(O)O)P(=O)(O)O [PAMIDRONIC ACID]
0.224 µM | CC(O)(CI)CCOP(=O)(O)OP(=O)(O)OP(=O)(O)O (stereo not given) [IODOHYDRIN TRIPHOSPHATE]
0.346 µM | CC(O)(CBr)CCOP(=O)(O)OP(=O)(O)OP(=O)(O)O (stereo not given) [BROMOHYDRIN TRIPHOSPHATE]
